Patent US20150322033A1, “ANTIBACTERIAL AGENT” (priority 2012, published 2015)
Converted amounts (≈) assume the structure as drawn.

Experiments:
[1] = tested on: S. aureus Mu50; experiment: microbe, parasite or virus in culture; assay type: cell-based, Staphylococcus aureus; conditions: for MIC: Staphylococcus aureus, MU50, read-out: MIC (mg/L) Mu50, Example 1, Tables 1 to 10; for MIC (mg/L) Mu50: Example 1, Tables 1 to 10
Description: (§1) S. aureus Mu50 (refer to Hiramatsu, K., Hanaki H., et al., J. Antimicrob. Chemother., 1997, 40(1), 135-6) or S. aureus FDA209P (ATCC 6538P) was cultured overnight at 37° C. in 4 mL of TBS (Tryptical Soy Broth, produced by Becton Dickinson) with shaking. After completion of the culture, the cells were suspended in fresh TBS to prepare a cell suspension showing an absorbance of 0.3 at 578 nm. Then, the cell suspension was diluted 500 times with CAMHB mentioned above.
(§2) CAMHB containing each test compound at each of the aforementioned concentrations was added to each well of a 96-well plate in a volume of 50 μL/well, the aforementioned cell suspension diluted 500 time was added to the well in a volume of 50 μL/well, and stationary culture was carried out overnight at 37° C.
(§3) MIC values (mg/L) of the flavones and quinolones against the strains were measured in the same manner as that of the measurement of MIC of Example 1, except that CAMHB containing each of the aforementioned flavones and quinolones prepared in Example 2 was used instead of CAMHB containing each of the test compounds.
(§4) MIC values of the flavones and quinolone for the strains were measured in the same manners as those of Example 1, except that S. aureus Mu50 NR-1 was also used as Staphylococcus aureus in addition to S. aureus FDA209P and S. aureus Mu50, cell suspensions of the strains were prepared.
(§5) In the same manner as that of Example 1, MIC values of M-246, M-21, J-Q21, and J-Q12.1 for Staphylococcus aureus were measured. M-246 and M-21 were obtained as commercial products, and as J-Q21 and J-Q12.1, those synthesized in Examples 6 and 7 were used.

[2] = tested on: S. aureus FDA209P (ATCC 6538P); experiment: microbe, parasite or virus in culture; assay type: cell-based, Staphylococcus aureus; conditions: for MIC: Staphylococcus aureus, read-out: MIC (mg/L) FDA209P; for MIC / MIC (mg/L) FDA209P: Example 1, Tables 1 to 10
Description: as §1, §2, §3, §4, §5

| Structure (SMILES) | MIC [1] [mg/L] | MIC [2] [mg/L] | MIC (mg/L) Mu50 [1] [mg/L] | MIC (mg/L) FDA209P [2] [mg/L] | other results |
| --- | --- | --- | --- | --- | --- |
| COc1cc(OC)c2c(=O)c(-c3ccc(O)cc3)coc2c1 [compound 121] | > 128 | > 128 |  |  |  |
| COc1cc(-c2coc3cc(O)c(OC)c(O)c3c2=O)cc(O)c1OC [compound 93] | 128 (≈ 355 µM) | 128 (≈ 355 µM) |  |  |  |
| COc1ccc(-c2coc3cc(O)cc(O)c3c2=O)cc1OC [compound 117] | > 128 | > 128 |  |  |  |
| COc1ccc(-c2c(C)oc3cc(O)cc(O)c3c2=O)cc1OC [compound 73] | > 128 | 128 (≈ 390 µM) |  |  |  |
| O=c1cc(-c2ccc(OC3OC(CO)C(O)C(O)C3O)cc2)oc2cc(O)cc(O)c12 (stereo not drawn) [compound 63] |  |  | 128 (≈ 296 µM) | 128 (≈ 296 µM) |  |
| O=c1c(O)c(-c2ccccc2)oc2cc(O)c(O)c(O)c12 [M-21] |  |  |  |  | MIC Mu50 ([1]; Example 8, Table 17): 16 µg/mL (≈ 55.9 µM); MIC FDA209P ([2]; Example 8, Table 17): 64 µg/mL (≈ 224 µM) |
| COc1ccc(-c2cc(=O)c3c(OC)c(OC)c(OC)cc3o2)cc1OC [compound 42] | > 128 | > 128 |  |  |  |
| O=C1CC(c2ccccc2)Oc2ccccc21 (stereo not drawn) [compound 126] | 128 (≈ 571 µM) | 128 (≈ 571 µM) |  |  |  |
| COc1cc(OC)c2c(=O)c(OC)c(-c3ccc(OC)c(OC)c3)oc2c1 [compound 19] |  |  | >128 | >128 |  |
| O=c1c(O)c(-c2ccc(O)c(O)c2)oc2c(OC3OC(CO)C(O)C(O)C3O)c(O)cc(O)c12 (stereo not drawn) [compound 61] |  |  | 128 (≈ 266 µM) | 128 (≈ 266 µM) |  |
| COc1ccc(-c2coc3cc(O)c(OC)c(O)c3c2=O)cc1 [compound 94] | 128 (≈ 407 µM) | 128 (≈ 407 µM) |  |  |  |
| O=c1c(OC2OC(CO)C(O)C(O)C2O)c(-c2ccc(O)cc2)oc2cc(O)cc(O)c12 (stereo not drawn) [compound 65] |  |  | >128 | >128 |  |
| Cc1cc2c(cc1-c1c(C)oc3cc(O)cc(O)c3c1=O)OCCO2 [compound 87] |  |  | 128 (≈ 376 µM) | 64 (≈ 188 µM) |  |
| Cc1oc2cc(O)cc(O)c2c(=O)c1-c1ccc2c(c1)OCCCO2 [compound 83] | 128 (≈ 376 µM) | 128 (≈ 376 µM) |  |  |  |
| COc1ccc(-c2coc3cc(O)cc(OC)c3c2=O)cc1OC [compound 108] | 128 (≈ 390 µM) | 128 (≈ 390 µM) |  |  |  |
| COc1cc(O)c(CN2CCOCC2)c2oc(-c3ccccc3)cc(=O)c12 [compound 50] | > 128 | > 128 |  |  |  |
| O=c1c(-c2ccc(OC3OC(CO)C(O)C(O)C3O)cc2)coc2cc(O)cc(O)c12 (stereo not drawn) [compound 81] |  |  | >128 | >128 |  |
| COc1ccc(C2CC(=O)c3c(O)cc(O)cc3O2)cc1O (stereo not drawn) [compound 125] | > 128 | 128 (≈ 423 µM) |  |  |  |
| COc1ccc(-c2coc3cc(O)cc(O)c3c2=O)cc1 [compound 116] | 128 (≈ 450 µM) | 128 (≈ 450 µM) |  |  |  |
| O=c1c(O)c(-c2ccc(O)cc2O)oc2cc(O)cc(O)c12 [compound 2] |  |  | 128 (≈ 424 µM) | >128 |  |
| COc1cc(OC)c2c(=O)c(-c3ccc(OC)c(OC)c3)coc2c1 [compound 111] | 128 (≈ 374 µM) | > 128 |  |  |  |
| COc1ccc(-c2cc(=O)c3c(O)c(OC)c(OC)cc3o2)cc1O [compound 40] | 128 (≈ 372 µM) | 128 (≈ 372 µM) |  |  |  |
| COc1cc(O)c(CN2CCN(C)CC2)c2oc(-c3ccccc3)cc(=O)c12 [compound 51] |  |  | 128 (≈ 336 µM) | 128 (≈ 336 µM) |  |
| CCOC(=O)c1oc2cc(O)cc(O)c2c(=O)c1-c1ccc(OC)c(OC)c1 [compound 114] | > 128 | > 128 |  |  |  |
